The target of assay [1] is T1, hMAT2A (Homo sapiens, UniProt P31153). Description: Phosphate Sensor Fluorescence Assay (MAT2A enzyme inhibition). Set-up: Human MAT2A: Cepter, amino acids 1-395; purchased Cepter clone ID 329, lot 00023-123; clone ID 334, lot 00023-148. The note with it: L-methionine 500 uM, ATP 500 uM, 1 hour room temperature. In kind it is biochemical. The protocol: (§1) The ability of the compound of present disclosure to inhibit MAT2A enzyme was determined using the Malachite Green or Phosphate Sensor Fluorescence Assay described below.
T1 sequence (P31153 whole entry, the tested form may be a part): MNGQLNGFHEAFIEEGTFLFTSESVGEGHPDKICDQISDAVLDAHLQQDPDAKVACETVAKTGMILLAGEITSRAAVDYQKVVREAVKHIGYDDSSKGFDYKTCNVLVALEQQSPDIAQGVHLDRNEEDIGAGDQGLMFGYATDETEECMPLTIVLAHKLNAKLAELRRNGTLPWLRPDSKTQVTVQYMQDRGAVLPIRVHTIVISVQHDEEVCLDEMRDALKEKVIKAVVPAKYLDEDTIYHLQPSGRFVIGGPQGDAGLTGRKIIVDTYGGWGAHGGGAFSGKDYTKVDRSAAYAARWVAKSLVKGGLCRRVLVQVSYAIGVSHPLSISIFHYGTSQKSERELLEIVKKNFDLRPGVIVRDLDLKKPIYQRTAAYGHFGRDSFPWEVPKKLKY
B. Phosphate Sensor Fluorescence Assay
MAT2A enzyme is incubated with a test compound in DMSO or DMSO and its substrates (L-methionine and ATP) in a microtiter plate. The enzymatic reaction is stopped by the addition of Working Phosphate Sensor Mixture. The plate is analyzed for fluorescence at 450 nm.
Test compounds or DMSO were added to the appropriate well suing D300e digital dispenser. 5 μl/well of Assay Buffer was added to the wells corresponding to the negative control and 5 μl/well of MAT2A was added to all the wells except for those corresponding to the negative control. After incubating the plate at room temperature for 15 minutes, 5 μl/well of the 1 mM L-methionine/1 mM ATP mixture was added to all wells. The plate was centrifuged at 1000 rpm for 1 minute and then incubated at room temperature for 1 hour. 5 μl of the Working Phosphate Sensor Mixture was added to all wells and the plate was centrifuged at 1000 rpm for 1 minute. The plate was read for fluorescence at 450 nm after exciting at 430 nm.
Percent inhibition was calculated in Chemical and Biological Information System (CBIS), (ChemInnovation Software Inc.). […]

The target in assay [2] is T1, hMAT2A. Nature of the assay: Malachite Green Assay (MAT2A enzyme inhibition). Type of assay: biochemical. The note with it: hMAT2A 50 nM, substrates 500 uM each, reaction time 1 hour, 23° C. Set-up: amino acids 1-395; purchased Cepter. Here is the method: as §1
L-methionine Substrate: Alfa Aesar catalog #J61904
ATP Substrate: Alfa Aesar cat #J60336
Malachite Green Detection Reagent: Millipore Sigma catalog #MAK307-1KT
Assay buffer: 50 mM Tris, pH 7.5/50 mM KCl/10 mM MgCl2/0.01% Brij-35/1 mM DTT/0.1% BGG
The plate was centrifuged at 1000 rpm for 1 minute and then incubated at room temperature for 1 hour. 5 μL of malachite green detection reagent was added to all the test wells and the plate was centrifuged at 1000 rpm for 1 minute and then incubated at room temperature for 30 minutes. The plate was read for absorbance at 620 nm on a plate reader (e.g., Infinite M1000).

These results are taken from US20260217709A1, “2-OXOQUINAZOLINE DERIVATIVES AS METHIONINE ADENOSYLTRANSFERASE 2A INHIBITORS” (IDEAYA BIOSCIENCES, INC., priority 2018, published 2026).

By IC50 is commonly meant the point on the concentration scale where inhibition reaches its midpoint.

On to “1[2-(difluoromethoxy)(3-pyridyl)]-7- cyclopropyl-4-[(cyclopropylmethyl)- amino]hydroquinazolin-2-one [Example 416]”, for which, at hMAT2A [1] (class symbols), the IC50 is less than 0.2 µM. As for “7-chloro-1-(2-fluoro-3- metho xyphenyl)-4- hydroxyhydroquinazolin-2-one [Example 332]”, the IC50 against hMAT2A [1] (numeric bound) was greater than 10 µM. Take `Nc1nc(=O)n(-c2ccccc2)c2cc(Cl)ccc12` [Example 59, 4-amino-7-chloro-1-phenylquinazolin-2(1H)-one]: the IC50 at hMAT2A [2] was in the range of 1 to 10 µM.
